# Reference: patent US20240076272A1, “Activators of Heme Regulated Inhibitor Kinase (HRI)” (The Brigham and Women`s Hospital, Inc., priority 2019, published 2024)
# Columns and labels:
# [1] = test system: MCF-7 cells transfected with siRNA targeting HRI; assay: cell proliferation assay with siRNA knockdown of HRI (specificity for HRI); type: cell-based, human; conditions: MCF-7 cells with or without siRNA targeting HRI; three days; SRB (FIG. 3)
# Protocol: MCF-7 cells transfected with (solid bars) or without (hatched bars) siRNA targeting HRI were treated with the indicated concentrations of each compound for three days starting one day after transfection. Cell proliferation was measured by sulforhodamine B assay as previously reported (see e.g., Chen et al, Nat. Chem. Biol. 7 (2011) 610-616).
# Stable cell lines utilized in this study were generated according to previous reports (see e.g., Bai et al, ChemBioChem, 14 (2013) 1255-1262). Briefly, cells were seeded at the density of 10^5 in 60-mm dish and transfected one day later using the Lipofectamine 2000 (Invitrogen). For selection of stable cell lines, transfected cells were transferred to 100-mm plates and selected with appropriate antibiotics (see e.g., Chen et al, Nat. Chem. Biol. 7 (2011) 610-616). siRNA knockdown was carried out in 96-well plates by reverse transfection as previously reported (see e.g., Chen et al, Nat. Chem. Biol. 7 (2011) 610-616).
# To determine the specificity of the compounds described herein for HRI, knockdown expression of HRI in MCF-7 cells using a pool of siRNA targeting HRI was performed, along with a cell proliferation assay as a biologic response parameter (see e.g., Chen et al, Nat. Chem. Biol. 7 (2011) 610-616; and Chen et al, J. Med. Chem. 56 (2013) 9457-9470). This assay was selected because it compares specificity of the compounds for HRI compared to all other cellular targets that can impinge on cell proliferation. MCF-7 human breast cancer cells transfected with siRNA targeting HRI or vehicle were treated with various concentrations of representative 4-CF3-ΦOcHΦUs (1-VI, 4-VI, and 5-VI) and 4-CF3-ΦOcBΦU (1-IV).
# human melanoma = conditions: xenograft mice model of human melanoma; cited from earlier work
smiles,measurement,setting,value
"N#Cc1cc(NC(=O)N[C@H]2C[C@H](Oc3ccc(C(F)(F)F)cc3)C2)cc(C(F)(F)F)c1 [Compound 1-IV, 1-(3-Cyano-5-(trifluoromethyl)phenyl)-3-(trans-3-(4-(trifluoromethyl)phenoxy)cyclobutyl)urea]",effect of knocking down HRI on the anti-proliferative activity,[1],dramatic reduction in the activity
same,melting point,,191.6 to 193 °C
"N#Cc1cc(NC(=O)N[C@H]2CC[C@H](Oc3ccc(C(F)(F)F)cc3)CC2)cc(C(F)(F)F)c1 [Compound 1-VI, 1-(3-cyano-5-trifluoromethyl) phenyl-3-(trans-4-(4-(trifluoromethyl)phenoxy)cyclohexyl)urea, reference compound]",effect of knocking down HRI on the anti-proliferative activity,[1],dramatic reduction in the activity
same,in vivo efficacy,human melanoma,in vivo efficacy
same,organ toxicity,human melanoma,no apparent organ toxicity
"N#Cc1ccc(NC(=O)N[C@H]2CC[C@H](Oc3ccc(C(F)(F)F)cc3)CC2)cc1F [Compound 5-VI, 1-(4-Cyano-3-fluorophenyl)-3-(trans-4-(4-(trifluoromethyl)phenoxy)cyclohexyl)urea]",effect of knocking down HRI on the anti-proliferative activity,[1],dramatic reduction in the activity
"N#Cc1cc(F)cc(NC(=O)N[C@H]2CC[C@H](Oc3ccc(C(F)(F)F)cc3)CC2)c1 [Compound 4-VI, 1-(3-Cyano-5-fluorophenyl)-3-(trans-4-(4-(trifluoromethyl)phenoxy)cyclohexyl)urea]",effect of knocking down HRI on the anti-proliferative activity,[1],dramatic reduction in the activity
same,melting point,,237.8 to 240.8 °C
